# Experimental data from patent US10947252B2, “Inhibitors of KEAP1-Nrf2 protein-protein interaction” (Janssen Pharmaceutica NV, priority 2018, dated 2021).
# System: Glo-Response ARE-luc2P HEK293 cell line
# Assay: ARE luciferase reporter cell-based assay;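 further: luciferase signal tracks Nrf2 activation of the ARE once compounds disrupt KEAP1-Nrf2 binding, read with One-Glo reagent, DMSO serving as low control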
# Conditions: Homo sapiens, HEK293, 24 h, average of results obtained
row,SMILES,EC50 [nM]
1,"CCc1c([C@H](c2ccc(C)c(CN3C[C@H]4CCCCN4c4ncc(C)cc4S3(=O)=O)c2)C(C)C(=O)O)ccn2c(C(F)(F)F)nnc12 (relative stereo) [Example 515, (3*S)-3-(8-Ethyl-3-(trifluoromethyl)-[1,2,4]triazolo[4,3-a]pyridin-7-yl)-2-methyl-3-(4-methyl-3-(((*R)-3-methyl-5,5-dioxido-7,7a,8,9,10,11-hexahydro-6H-dipyrido[2,1-d:2′,3′-f][1,2,5]thiadiazepin-6-yl)methyl)phenyl)propanoic Acid]",1.33
2,"Cc1cc2cc([C@H](c3ccc(C)c(CN4CC5(CCOCC5)Oc5nc(OCCN6CCCCC6)c(C)cc5S4(=O)=O)c3)C(C)(C)C(=O)O)n(C)c2nn1 (single isomer, unassigned) [Example 349, (*R)-3-(3,7-Dimethyl-7H-pyrrolo[2,3-c]pyridazine-6-yl)-2,2-dimethyl-3-(4-methyl-3-((8′-methyl-1′,1′-dioxido-7′-(2-(piperidine-1-yl)-ethoxy)2,3,5,6-tetrahydrospiro[pyran-4,4′-pyrido[2,3-b][1,4,5]oxathiazepin]-2′,(3′H)-yl)methyl)phenyl)propanoic Acid]",1540
3,"CCc1c([C@@H](CC(=O)O)c2ccc(C)c(CN3C[C@@H]4CCCCN4c4ncc(C)cc4S3(=O)=O)c2)ccn2c(C(F)(F)F)nnc12 (relative stereo) [Example 517, (*S)-3-(8-Ethyl-3-(trifluoromethyl)-[1,2,4]triazolo[4,3-a]pyridin-7-yl)-3-(4-methyl-3-(((*S)-3-methyl-5,5-dioxido-7,7a,8,9,10,11-hexahydro-6H-dipyrido[2,1-d:2′,3′-f][1,2,5]thiadiazepin-6-yl)methyl)phenyl)propanoic Acid]",10.3
4,"CCn1nnc2c(C)c([C@@H](CC(=O)O)c3ccc(C)c(CN4C[C@H]5CCCN5c5ccccc5S4(=O)=O)c3)ccc21 (single isomer, unassigned) [Example 153, (*S)-3-(3-(((R)-5,5-Dioxido-7a,8,9,10-tetrahydrobenzo[f]pyrrolo[2,1-d][1,2,5]thiadiazepin-6(7H)-yl)methyl)-4-methylphenyl)-3-(1-ethyl-4-methyl-1H-benzo[d][1,2,3]triazol-5-yl)propanoic Acid]",3
5,"Cc1ccc([C@H](CC(=O)O)c2ccn3c(C(F)(F)F)nnc3c2C)cc1CN1C[C@H]2CCC(F)(F)CN2c2ncccc2S1(=O)=O (relative stereo) [Example 454, (*S)-3-(3-(((*R)-10,10-difluoro-5,5-dioxido-7,7a,8,9,10,11-hexahydro-6H-dipyrido[2,1-d:2′,3′-f][1,2,5]thiadiazepin-6-yl)methyl)-4-methylphenyl)-3-(8-methyl-3-(trifluoromethyl)-[1,2,4]triazolo[4,3-a]pyridin-7-yl)propanoic Acid]",38.3
6,"Cc1ccc([C@H](CC(=O)O)c2ccn3c(C(F)(F)F)nnc3c2C)cc1CN1CC2CCCCN2c2ncc(Cl)cc2S1(=O)=O (mixture of isomers) [Example 191, (3*S)-3-(3-((3-Chloro-5,5-dioxido-7,7a,8,9,10,11-hexahydro-6H-dipyrido[2,1-d:2′,3′-f][1,2,5]thiadiazepin-6-yl)methyl)-4-methylphenyl)-3-(8-methyl-3-(trifluoromethyl)-[1,2,4]triazolo[4,3-a]pyridin-7-yl)propanoic Acid]",1.9
7,"CCn1nnc2c(C)c(C(CC(=O)O)c3ccc(C)c(CN4C[C@@H]5CCCCN5c5ncccc5S4(=O)=O)c3)ccc21 (mixture of isomers) [Example 141, (R/S)-3-(3-(((*S)-5,5-Dioxido-7,7a,8,9,10,11-hexahydro-6H-dipyrido[2,1-d:2′,3′-f][1,2,5]thiadiazepin-6-yl)methyl)-4-methylphenyl)-3-(1-ethyl-4-methyl-1H-benzo[d][1,2,3]triazol-5-yl)propanoic Acid]",3.9
